Test results as given in patent US20250368647A1, “NITROGEN CONTAINING CONDENSED 2,3-DIHYDROQUINAZOLINONE COMPOUNDS AS NAV1.8 INHIBITORS” (GLAXOSMITHKLINE INTELLECTUAL PROPERTY DEVELOPMENT LIMITED, priority 2022, published 2025).

Biological target: human Nav1.8 (Homo sapiens (Human), UniProt Q9Y5Y9)
Experiment: QPatch 48 HTX voltage-clamp electrophysiology, half inactivation state (V1/2) protocol, HEK293-Nav1.8 cells
Format: cell-based
Details: HEK293 cells expressing human Nav1.8, human Navβ1 and human TREK1, P2 current
Procedure: Human embryonic kidney 293 cells (HEK293) expressing human Nav1.8, human Navβ1 and human TREK1 (HEK293-Nav1.8) were grown in T150 cell culture flasks at 37° C., 5% CO2 incubator. HEK293-Nav1.8 were passaged every 2-3 days when confluency reached 80-90% in T150 cell culture flasks.
Pharmacological assessment of compounds of the invention was performed using the QPatch 48 HTX electrophysiological platform. HEK293-Nav1.8 cells were prepared on the day of use by removing culture media, washing in DPBS, adding Accutase (2 mL to cover the surface, aspirate 1 mL then 1-2 minutes at 37° C.) followed by addition of CHO-SFM II to stop the enzyme digestion and in order to obtain a suspension of 3×10^6 cell/mL.
Compounds of the invention were prepared in an extracellular solution of the following composition: NaCl (145 mM), KCl (4 mM), CaCl2) (2 mM), MgCl (2 mM), HEPES (1 mM), Glucose (10 mM), pH 7.4 with NaOH Osmolality 300 mOsM/L. An intracellular solution of the following composition was used: CsF (115 mM), CsCl (20 mM), NaCl (5 mM), EGTA (10 mM), HEPES (10 mM), Sucrose (20 mM), pH 7.2 with CsOH Osmolality 310 mOsm/L.
Utilizing the voltage-clamp mode in the QPatch 48 HTX system a half inactivation state voltage protocol (V1/2) was used to determine pharmacological activity of compounds of the invention at Nav1.8 ion channels. A V1/2 protocol was utilized with the following voltage steps: a holding voltage of −100 mV was established followed by a 20 ms voltage step to 0 mV (P1), followed by an inactivating voltage step at −46 mV for 8 seconds, followed by a step to −100 mV for 20 ms, before a 20 ms step to 0 mV (P2), then returned to the holding voltage of −100 mV. This voltage protocol was repeated at a frequency of every 15 seconds, the current magnitude was quantified at the P2 step throughout the recording. Inhibition of the measured current amplitude with compounds of the invention was analyzed by fitting a 4-6 points dose-response curve allowing determination of the fifty percent inhibition concentration (IC50). P2 currents were normalized according to measurements made at baseline (Baseline, vehicle only), after compound (Input, at each test concentration), and after positive reference compound (FullResponse, to achieve complete block), fit to the following equation: […]
To assess current run-down over the course of the experiment vehicle-only wells were utilized and the normalized current with vehicle-only (n.IVEH) was determined. To correct the compound response for run-down, the currents were corrected according to the following formula: […]
Compound inhibition was fitted to the following Hill Equation to estimate the half maximal inhibition concentration (IC50)
[formula] • where Y is the normalized run-down corrected inhibition relative to the vehicle control (equivalent to n.IRD_Correct), C the test compound concentration, IC50 the concentration of test compound to inhibit the sodium current by 50%, and h the Hill coefficient.

human Nav1.8, sequence (Q9Y5Y9 whole entry): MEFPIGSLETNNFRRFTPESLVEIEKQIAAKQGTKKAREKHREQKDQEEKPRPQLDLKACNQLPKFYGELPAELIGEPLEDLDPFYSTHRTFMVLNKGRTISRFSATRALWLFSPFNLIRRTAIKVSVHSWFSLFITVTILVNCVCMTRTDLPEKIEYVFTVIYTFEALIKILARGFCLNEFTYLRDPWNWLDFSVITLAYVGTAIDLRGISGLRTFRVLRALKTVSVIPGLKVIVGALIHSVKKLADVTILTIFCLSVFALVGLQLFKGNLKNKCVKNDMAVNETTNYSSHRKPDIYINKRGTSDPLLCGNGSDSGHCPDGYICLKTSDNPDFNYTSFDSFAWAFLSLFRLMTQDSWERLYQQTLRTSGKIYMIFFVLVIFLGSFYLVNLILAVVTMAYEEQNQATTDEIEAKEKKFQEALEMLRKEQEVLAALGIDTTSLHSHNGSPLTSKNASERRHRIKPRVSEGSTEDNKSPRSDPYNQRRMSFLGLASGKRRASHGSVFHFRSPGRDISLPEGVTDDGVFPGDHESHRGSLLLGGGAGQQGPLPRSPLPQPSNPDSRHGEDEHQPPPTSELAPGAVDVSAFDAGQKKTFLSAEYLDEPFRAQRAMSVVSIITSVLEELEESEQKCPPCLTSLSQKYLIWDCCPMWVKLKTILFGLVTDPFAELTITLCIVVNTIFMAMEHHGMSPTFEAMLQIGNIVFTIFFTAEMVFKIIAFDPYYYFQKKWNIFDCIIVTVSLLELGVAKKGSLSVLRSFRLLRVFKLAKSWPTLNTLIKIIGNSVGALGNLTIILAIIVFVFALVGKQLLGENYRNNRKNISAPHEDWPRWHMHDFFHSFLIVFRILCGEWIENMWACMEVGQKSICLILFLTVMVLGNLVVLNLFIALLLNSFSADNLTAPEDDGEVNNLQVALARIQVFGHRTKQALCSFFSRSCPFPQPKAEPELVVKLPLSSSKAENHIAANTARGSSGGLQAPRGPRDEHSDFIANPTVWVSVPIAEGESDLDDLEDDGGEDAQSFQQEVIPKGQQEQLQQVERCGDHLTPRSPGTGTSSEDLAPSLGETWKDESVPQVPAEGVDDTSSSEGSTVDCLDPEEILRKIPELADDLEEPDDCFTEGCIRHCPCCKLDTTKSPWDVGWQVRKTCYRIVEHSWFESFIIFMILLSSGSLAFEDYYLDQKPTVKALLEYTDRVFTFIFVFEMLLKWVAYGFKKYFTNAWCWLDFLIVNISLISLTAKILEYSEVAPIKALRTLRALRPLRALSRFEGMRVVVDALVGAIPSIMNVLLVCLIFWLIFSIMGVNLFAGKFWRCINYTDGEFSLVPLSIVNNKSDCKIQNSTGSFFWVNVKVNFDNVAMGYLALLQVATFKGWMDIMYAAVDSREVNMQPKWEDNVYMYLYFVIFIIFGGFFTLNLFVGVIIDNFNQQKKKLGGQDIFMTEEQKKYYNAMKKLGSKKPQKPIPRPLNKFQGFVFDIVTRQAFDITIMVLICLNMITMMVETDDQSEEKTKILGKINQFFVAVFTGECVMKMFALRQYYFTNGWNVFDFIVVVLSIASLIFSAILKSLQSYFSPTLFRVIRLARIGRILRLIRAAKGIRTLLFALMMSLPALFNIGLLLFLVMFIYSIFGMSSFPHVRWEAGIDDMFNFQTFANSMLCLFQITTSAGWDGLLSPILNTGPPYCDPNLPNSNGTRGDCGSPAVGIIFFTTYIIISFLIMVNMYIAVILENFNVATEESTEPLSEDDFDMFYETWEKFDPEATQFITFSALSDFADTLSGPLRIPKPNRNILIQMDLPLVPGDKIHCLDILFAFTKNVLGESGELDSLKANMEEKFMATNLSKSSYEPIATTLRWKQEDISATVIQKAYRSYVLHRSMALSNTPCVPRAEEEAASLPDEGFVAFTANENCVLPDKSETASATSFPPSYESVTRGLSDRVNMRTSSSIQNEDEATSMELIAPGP
human Nav1.8, sequence (Q07699 19-218 partner): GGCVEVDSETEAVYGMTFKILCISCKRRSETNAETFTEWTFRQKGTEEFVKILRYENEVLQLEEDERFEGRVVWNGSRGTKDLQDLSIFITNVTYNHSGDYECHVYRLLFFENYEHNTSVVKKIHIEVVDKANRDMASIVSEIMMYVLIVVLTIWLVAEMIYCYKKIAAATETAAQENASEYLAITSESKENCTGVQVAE

Compound | Nav1.8, pIC50
O=C1c2cc(C(F)(F)F)cnc2N2CN1c1ccc(=O)[nH]c1CCCCc1cc(OC(F)(F)F)ccc12 [Example 17, 8-(Trifluoromethoxy)-2-(trifluoromethyl)-10,11,12,13-tetahydro-19H,19H-5,18-methano-dibenzo[l]pyrido[2,3-b:3′,2′-f][1,5]diazacyclotridecine-15,19(14H)-dione] | 6.1
O=C1c2cc(Cl)cnc2N2CN1c1ccc(=O)[nH]c1CCCCCc1cc(F)ccc12 [Example 20, 2^6-Chloro-3^4-fluoro-1^1,1^2,2^1,2^2,2^3,2^4-hexahydro-2(3,1)-pyrido[2,3-d]pyrimidina-1(5,6)-pyridina-3(1,2)-benzenacyclooctaphane-1^2,2^4-dione] | 7.2
O=C1c2cc(C(F)(F)F)cnc2N2CN1c1ccc(=O)[nH]c1CC/C=C\Cc1cc(F)ccc12 [Example 24, 3^4-Fluoro-2^6-(trifluoromethyl)-1^1,1^2,2^1,2^2,2^3,2^4-hexahydro-2(3,1)-pyrido[2,3-d]pyrimidina-1(5,6)-pyridina-3(1,2)-benzenacyclooctaphan-5-ene-1^2,2^4-dione] | 7.7
O=C1c2cc(F)c(C(F)(F)F)cc2N2CN1c1ccc(=O)[nH]c1NCCCc1cc(F)ccc12 [Example 32, 2,8-Difluoro-3-(trifluoromethyl)-10,11,12,13-tetrahydro-19H-5,18-methanodibenzo[f,i]pyrido[2,3,-b][1,4,8]triazacyclotridecine-15,19(14H)-dione] | 8.4
O=C1c2c(ccc(C(F)(F)F)c2F)N2CN1c1ccc(=O)[nH]c1NCCCc1cc(F)ccc12 [Example 33, 1,8-Difluoro-2-(trifluoromethyl)-10,11,12,13-tetrahydro-19H-5,18-methanodibenzo[f,i]pyrido[2,3,-b][1,4,8]triazacyclotridecine-15,19(14H)-dione] | 7.5
O=C1c2cc(C(F)(F)F)cnc2N2CN1c1ccc(=O)[nH]c1NCCCc1cc(F)ccc12 [Example 34, 8-Fluoro-2-(trifluoromethyl)-10,11,12,13-tetrahydro-19H-5,18-methanodibenzo[i]dipyrido[2,3,-b:3′,2′-f][1,4,8]triazacyclotridecine-15,19(14H)-dione] | 6.4
O=C1c2cnc(C(F)(F)F)cc2N2CN1c1ccc(=O)[nH]c1NCCCc1cc(F)ccc12 [Example 36, 8-Fluoro-3-(trifluoromethyl)-10,11,12,13-tetrahydro-19H-5,18-methanodibenzo[i]dipyrido[2,3,-b:3′,4′-f][1,4,8]triazacyclotridecine-15,19(14H)-dione] | 6.6
O=C1c2cc(C(F)(F)F)ccc2N2CN1c1ccc(=O)[nH]c1NCCCc1c2ccc(F)c1F [Example 37, 8,9-Difluoro-2-(trifluoromethyl)-10,11,12,13-tetrahydro-19H-5,18-methanodibenzo[f,i]dipyrido[2,3,-b][1,4,8]triazacyclotridecine-15,19(14H)-dione] | 7.7
O=C1c2cc(C(F)(F)F)ncc2N2CN1c1ccc(=O)[nH]c1NCCCc1c2ccc(F)c1F [Example 38, 8,9-Diluoro-2-(trifluoromethyl)-10,11,12,13-tetrahydro-19H-5,18-methanodibenzo[i]dipyrido[2,3,-b:4′,3′-f][1,4,8]triazacyclotridecine-15,19(14H)-dione] | 6.8

The next lines start with the values.

Nav1.8, pIC50 | Compound
6.0 | O=C1c2cc(C(F)(F)F)ccc2N2CN1c1ccc(=O)[nH]c1CCCOc1cc(F)ccc12 [Example 16, 8-Fluoro-2-(trifluoromethyl)-12,13-dihydro-11H,19H-5,18-methanodibenzo[b,e]pyrido[3,2-i][1]oxa[4,8]diazacyclotridecine-15,19(14H)-dione]
6.5 | O=C1c2ccc(C(F)(F)F)cc2N2CN1c1ccc(=O)[nH]c1CCCCOc1cc(F)ccc12 [Example 18, 3^4-Fluoro-2^7-(trifluoromethyl)-1^1,1^2,2^1,2^2,2^3,2^4-hexahydro-4-oxa-2(3,1)-quinazolina-1(5,6)-pyridina-3(1,2)-benzenacyclooctaphane-1^2,2^4-dione]
7.6 | O=C1c2cc(C(F)(F)F)ncc2N2CN1c1ccc(=O)[nH]c1CCCCCc1cc(F)ccc12 [Example 21, 3^4-Fluoro-2^6-(trifluoromethyl)-1^1,1^2,2^1,2^2,2^3,2^4-hexahydro-2(3,1)-pyrido[3,4-d]pyrimidina-1(5,6)-pyridina-3(1,2)-benzenacyclooctaphane-1^2,2^4-dione]
7.6 | O=C1c2ccc(C(F)(F)F)nc2N2CN1c1ccc(=O)[nH]c1CCCCCc1cc(F)ccc12 [Example 22, 3^4-Fluoro-2^7-(trifluoromethyl)-1^1,1^2,2^1,2^2,2^3,2^4-hexahydro-2(3,1)-pyrido[2,3-d]pyrimidina-1(5,6)-pyridina-3(1,2)-benzenacyclooctaphane-1^2,2^4-dione]
7.2 | O=C1c2cc(C(F)(F)F)cnc2N2CN1c1ccc(=O)[nH]c1CCCCCc1cc(F)ccc12 [Example 23, 3^4-Fluoro-2^6-(trifluoromethyl)-1^1,1^2,2^1,2^2,2^3,2^4-hexahydro-2(3,1)-pyrido[2,3-d]pyrimidina-1(5,6)-pyridina-3(1,2)-benzenacyclooctaphane-1^2,2^4-dione]
6.2 | O=C1c2cc(C(F)(F)F)ccc2N2CN1c1ccc(=O)[nH]c1CCCCNc1cc(F)ccc12 [Example 25, 3^4-Fluoro-2^6-(trifluoromethyl)-1^1,1^2,2^1,2^2,2^3,2^4-hexahydro-4-aza-2(3,1)-quinazolina-1(5,6)-pyridina-3(1,2)-benzenacyclooctaphan-1^2,2^4-dione]
8.3 | O=C1c2cc(C(F)(F)F)ccc2N2CN1c1cc[n+]([O-])cc1CCCCCc1cc(F)ccc12 [Example 26, 3^4-Fluoro-2^4-oxo-2^6-(trifluoromethyl)-2^1,2^2,2^3,2^4-tetrahydro-2(3,1)-quinazolina-1(4,3)-pyridin-1-iuma-3(1,2)-benzenacyclooctaphan-1-oxide]
7.8 | O=C1c2cc(C(F)(F)F)ccc2N2CN1c1ccc(=O)[nH]c1NCCCc1cc(F)ccc12 [Example 27, 8-Fluoro-2-(trifluoromethyl)-10,11,12,13-tetrahydro-19H-5,18-methanodibenzo[f,i]pyrido[2,3-b][1,4,8]triazocyclotridecine-15,19(14H)-dione]
7.5 | O=C1c2ccc(C(F)(F)F)cc2N2CN1c1ccc(=O)[nH]c1NCCCc1cc(F)ccc12 [Example 28, 8-Fluoro-3-(trifluoromethyl)-10,11,12,13-tetrahydro-19H-5,18-methanodibenzo[f,i]pyrido[2,3-b][1,4,8]triazocyclotridecine-15,19(14H)-dione]
7.1 | O=C1c2cc(C(F)(F)F)ccc2N2CN1c1cc(Cl)c(=O)[nH]c1NCCCc1cc(F)ccc12 [Example 29, 16-Chloro-8-fluoro-2-(trifluoromethyl)-10,11,12,13-tetrahydro-19H-5,18-methanodibenzo[f,i]pyrido[2,3,-b][1,4,8]triazacyclotridecine-15,19(14H)-dione]
6.9 | CN1CCCc2cc(F)ccc2N2CN(C(=O)c3cc(C(F)(F)F)ccc32)c2ccc(=O)[nH]c21 [Example 30, 8-Fluoro-13-methyl-2-(trifluoromethyl)-10,11,12,13-tetrahydro-19H-5,18-methanodibenzo[f,i]pyrido[2,3,-b][1,4,8]triazacyclotridecine-15,19(14H)-dione]
7.5 | O=C1c2cc(OC(F)(F)F)ccc2N2CN1c1ccc(=O)[nH]c1NCCCc1cc(F)ccc12 [Example 31, 8-Fluoro-2-(trifluoromethoxy)-10,11,12,13-tetrahydro-19H-5,18-methanodibenzo[f,i]pyrido[2,3,-b][1,4,8]triazacyclotridecine-15,19(14H)-dione]
6.9 | O=C1c2cc(C(F)(F)F)ncc2N2CN1c1ccc(=O)[nH]c1NCCCc1cc(F)ccc12 [Example 35, 8-Fluoro-2-(trifluoromethyl)-10,11,12,13-tetrahydro-19H-5,18-methanodibenzo[i]dipyrido[2,3,-b:4′,3′-f][1,4,8]triazacyclotridecine-15,19(14H)-dione]
